In patent publication US20240115557A1, “INHIBITORS OF RNA-GUIDED NUCLEASES AND USES THEREOF” (The Brigham and Women's Hospital, Inc., priority 2022, published 2024):

Assays:
SpCas9 [1] = biological target: T1, SpCas9 (Streptococcus pyogenes serotype M1, UniProt Q99ZW2); test: HiBiT knock-in assay, SpCas9, HEK293T cells; type: cell-based; details: for Activity in HiBiT knock-in assay: result in words, relative to BRD7586
Description: Primary and secondary screening. The primary screen assayed a selection of unique chemical scaffolds derived from commercially available compounds and known bioactive molecular libraries (Table 7). Auto-fluorescent compounds were removed by a counter screen. Overall, the CAA was used to assay 122,409 small molecules with over 2,500 unique chemical scaffolds (FIG. 64F, Table 7). Of these compounds, 547 were selected as hits (Z score >3 in both replicates) for testing in orthogonal cell-based secondary assays. Hits were tested in duplicate in an eGFP disruption assay, wherein U2OS.eGFP.PEST cells^33 transfected with SpCas9 plasmid and eGFP-targeting gRNA plasmid were incubated with 20 μM of the compounds. In this assay, any compound that inhibited SpCas9 would rescue the loss of eGFP fluorescence. Here, toxic and auto-fluorescent compounds with a high GFP signal in cells were removed as false positives. […] Next, Applicants tested the 15 compounds in a luminescence-based gain-of-signal HiBiT knock-in assay, which involves SpCas9-mediated homology-directed tagging of GAPDH with a short peptide that luminesces upon complementation with a subunit derived from nanoluciferase.^34 Complementarily, the eGFP-disruption assay is fluorescence-based and involves error-prone DNA repair. As a counter-screen to remove false positives caused by cell death (viability <80%), the cell viability was measured after incubation.
Approximately 400,000 HEK293T cells were nucleofected with 400 ng of SpCas9 plasmid, 40 ng of GAPDH-targeting gRNA plasmid, and 40 pmol of single-strand oligodeoxynucleotide (ssODN) using SF Cell Line 4D-Nucleofector X Kit (Lonza) following the pulse program of DS-150. For RNP-based genome editing, 10 pmol of Cas9 and 12 pmol of gRNA were mixed and incubated for 5 min. Then, 20 pmol of ssODN was added. Cells were nucleofected with the resulting mixture using the same pulse program. Cells were then transferred to a 96-well plate at the density of 35,000 cells per well, and incubated with indicated amount of compounds for 24 h. Cell viability was measured using PrestoBlue reagent (Thermo) with a SpectraMax M5 (Molecular Devices) at the excitation and emission wavelength of 544 nm and 590 nm, respectively. Next, luminescence measurement was performed using the Nano-Glo HiBiT Lytic Detection System (Promega) according to the manufacturer's protocol with an EnVision Multilabel Plate Reader (PerkinElmer) at the integration time of 0.5 s per well. The resulting luminescence signals were normalized based on the cell viability.^34

SpCas9 [2] = biological target: T1, SpCas9; test: eGFP disruption assay, SpCas9, U2OS.eGFP.PEST cells; type: cell-based; details: for % GFP+, Rep 1 / Z score Rep1 / Normalized Z rep1: replicate 1; for % GFP+, Rep 2 / Z socre Rep2 / Normalized Z rep2: replicate 2; for SpCas9 eGFP disruption Rep1: replicate 1, raw readout; for SpCas9 eGFP disruption Rep2: replicate 2, raw readout; for Activity in eGFP-disruption assay: result in words, relative to BRD7586
Procedure, shortened: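 U2OS.eGFP.PEST cells nucleofected with 300 ng SpCas9 plasmid plus 30 ng eGFP-targeting gRNA plasmid, or with SpCas9 RNP (10 pmol protein, 12 pmol gRNA). Cells then incubated 24 h with compound (20 μM in screening). Inhibition is read as rescue of eGFP fluorescence in paraformaldehyde-fixed, nuclear-stained cells.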

SpCas9 [3] = biological target: T1, SpCas9; test: Strand displacement assay (SDA) / cumulative activity assay (CAA), SpCas9 primary screen; type: biochemical; details: Primary Screen (150 min); for Normalized Z score 1: replicate 1; for Normalized Z score 2: replicate 2
Procedure, shortened: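 SpCas9:gRNA RNP in 20 mM Tris-HCl pH 7.5, 100 mM KCl, 5 mM MgCl2 was used at 10 nM (2× stock) with Alexa Fluor 647-labelled substrate and excess quencher strand (1 nM and 5 nM, 2× stocks). Fluorescence was read after 2.5 h at 37 °C, where cleavage lets the quencher strand anneal.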

[4] = test system: restriction endonuclease Nde1; test: Gel cleavage specificity assay, Nde1; type: biochemical; details: 20 uM
FnCpf1 = FnCpf1 (Francisella tularensis subsp. novicida, UniProt A0Q7Q2); type: biochemical; details: 20 uM
Chain of FnCpf1 (A0Q7Q2 whole entry, looked up): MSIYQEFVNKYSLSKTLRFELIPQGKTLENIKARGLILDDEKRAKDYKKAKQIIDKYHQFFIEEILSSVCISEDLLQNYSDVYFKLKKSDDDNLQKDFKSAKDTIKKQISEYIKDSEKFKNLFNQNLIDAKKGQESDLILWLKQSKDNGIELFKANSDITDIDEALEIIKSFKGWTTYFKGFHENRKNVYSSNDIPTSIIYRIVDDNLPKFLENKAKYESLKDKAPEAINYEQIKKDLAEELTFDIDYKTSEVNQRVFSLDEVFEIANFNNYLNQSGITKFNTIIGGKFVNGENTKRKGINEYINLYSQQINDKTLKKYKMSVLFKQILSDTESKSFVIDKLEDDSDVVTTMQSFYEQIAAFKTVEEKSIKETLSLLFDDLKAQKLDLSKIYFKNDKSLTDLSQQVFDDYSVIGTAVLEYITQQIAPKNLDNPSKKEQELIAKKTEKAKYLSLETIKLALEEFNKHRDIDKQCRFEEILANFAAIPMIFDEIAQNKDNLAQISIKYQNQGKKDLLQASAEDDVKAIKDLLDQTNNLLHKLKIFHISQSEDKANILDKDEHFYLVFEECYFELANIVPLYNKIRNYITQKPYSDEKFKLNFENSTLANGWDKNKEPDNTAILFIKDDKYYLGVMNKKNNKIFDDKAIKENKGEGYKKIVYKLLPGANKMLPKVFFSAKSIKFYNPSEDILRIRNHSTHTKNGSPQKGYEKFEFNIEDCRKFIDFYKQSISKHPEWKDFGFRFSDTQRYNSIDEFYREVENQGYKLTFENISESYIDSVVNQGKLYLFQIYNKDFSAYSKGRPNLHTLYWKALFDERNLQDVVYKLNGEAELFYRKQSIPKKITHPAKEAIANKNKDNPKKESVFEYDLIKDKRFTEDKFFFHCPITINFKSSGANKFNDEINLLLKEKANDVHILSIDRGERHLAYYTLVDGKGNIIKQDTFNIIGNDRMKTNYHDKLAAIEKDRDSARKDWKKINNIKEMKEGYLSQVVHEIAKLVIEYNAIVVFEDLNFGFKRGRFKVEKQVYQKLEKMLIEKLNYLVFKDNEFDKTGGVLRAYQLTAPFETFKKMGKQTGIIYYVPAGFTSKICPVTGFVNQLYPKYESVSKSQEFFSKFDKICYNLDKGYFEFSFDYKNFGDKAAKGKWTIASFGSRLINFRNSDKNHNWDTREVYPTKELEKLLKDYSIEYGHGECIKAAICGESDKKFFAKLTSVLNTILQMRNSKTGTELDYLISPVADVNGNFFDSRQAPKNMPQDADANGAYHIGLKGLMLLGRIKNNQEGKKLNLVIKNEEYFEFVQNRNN

[5] = Cas9 = lower control, Ctrl = upper control
[6] = normalized, lower control about 0, upper control about 1

T1 sequence (Q99ZW2 whole entry): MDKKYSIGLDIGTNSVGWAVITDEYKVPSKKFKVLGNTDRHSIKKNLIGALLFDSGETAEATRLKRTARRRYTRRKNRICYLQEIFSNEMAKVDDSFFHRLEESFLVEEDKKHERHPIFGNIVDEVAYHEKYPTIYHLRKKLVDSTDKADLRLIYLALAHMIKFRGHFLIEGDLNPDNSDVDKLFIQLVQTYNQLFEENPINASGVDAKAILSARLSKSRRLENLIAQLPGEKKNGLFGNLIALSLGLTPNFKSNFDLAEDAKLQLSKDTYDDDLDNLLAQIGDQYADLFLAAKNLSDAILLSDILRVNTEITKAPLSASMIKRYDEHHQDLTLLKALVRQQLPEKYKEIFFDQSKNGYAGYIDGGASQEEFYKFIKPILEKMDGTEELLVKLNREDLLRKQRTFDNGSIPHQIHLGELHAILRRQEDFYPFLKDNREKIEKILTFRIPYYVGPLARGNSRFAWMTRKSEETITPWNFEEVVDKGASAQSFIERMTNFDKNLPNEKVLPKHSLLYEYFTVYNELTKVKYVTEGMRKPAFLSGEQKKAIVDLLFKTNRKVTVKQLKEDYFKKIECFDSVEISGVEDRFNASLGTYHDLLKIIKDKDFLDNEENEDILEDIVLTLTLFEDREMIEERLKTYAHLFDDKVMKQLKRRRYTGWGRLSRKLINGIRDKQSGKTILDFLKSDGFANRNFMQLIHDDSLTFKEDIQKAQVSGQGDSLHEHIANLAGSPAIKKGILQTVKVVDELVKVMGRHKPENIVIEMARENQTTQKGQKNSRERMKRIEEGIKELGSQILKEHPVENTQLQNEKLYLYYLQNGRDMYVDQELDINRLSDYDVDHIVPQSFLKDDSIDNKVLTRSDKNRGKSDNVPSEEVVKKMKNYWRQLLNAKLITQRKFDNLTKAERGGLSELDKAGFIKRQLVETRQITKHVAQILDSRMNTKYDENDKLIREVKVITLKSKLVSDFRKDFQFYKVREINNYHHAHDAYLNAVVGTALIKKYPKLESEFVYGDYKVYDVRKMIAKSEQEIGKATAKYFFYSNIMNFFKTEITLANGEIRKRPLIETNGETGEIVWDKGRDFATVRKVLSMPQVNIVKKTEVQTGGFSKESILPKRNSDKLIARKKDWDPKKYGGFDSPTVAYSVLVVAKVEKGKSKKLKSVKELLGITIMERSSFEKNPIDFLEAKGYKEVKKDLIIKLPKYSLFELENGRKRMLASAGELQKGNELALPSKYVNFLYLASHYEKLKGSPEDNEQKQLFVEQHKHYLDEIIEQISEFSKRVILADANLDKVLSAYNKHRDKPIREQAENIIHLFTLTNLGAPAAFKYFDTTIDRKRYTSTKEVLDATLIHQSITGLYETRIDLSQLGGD

Row | Compound | Hibit assay-% inhibition (SpCas9 [1]) [%] | eGFP disruption-% inhibition (SpCas9 [2]) [%] | % GFP+, Rep 1 (SpCas9 [2]; eGFP assay) [%] | Z score Rep1 (SpCas9 [2]; eGFP assay) | % GFP+, Rep 2 (SpCas9 [2]; eGFP assay) [%] | Z score Rep1 (SpCas9 [2]) | SpCas9 eGFP disruption Rep1 (SpCas9 [2]; [5]) | Normalized Z rep1 (SpCas9 [2]; [6]) | Z socre Rep2 (SpCas9 [2]) | SpCas9 eGFP disruption Rep2 (SpCas9 [2]; [5]) | Normalized Z rep2 (SpCas9 [2]; [6]) | avg z score primary (SpCas9 [3]) | Normalized Z score 1 (SpCas9 [3]) | Normalized Z score 2 (SpCas9 [3]) | also measured
1 | CCN1C(=O)c2cccc3cccc1c23 [Compound T0503-6911] | 18.06 | 26.33 | 67.52 | 3.76 | 66.59 | 3.76 | 67.522 | 0.26 | 6.09 | 66.588 | 0.29 | 6.86 | 0.06 | 0.10 | Average Normalized Z score (SpCas9 [3]; average of replicates): 0.08
2 | COc1ccc(Cc2nnc3sc(Cc4ccc(OC)c(OC)c4)nn23)cc1 [Compound D727-0165] | 22.01 | 25.03 |  |  |  | 1.09 | 70.62 | 0.15 | −0.43 | 61.783 | −0.05 |  |  |  | 
3 | CCc1cccc(-n2nnnc2N2CCN(C(=O)Nc3ccc(Br)c(C)c3)CC2)c1 [Compound L378-0372] |  |  |  |  |  |  |  |  |  |  |  |  |  |  | Activity against Nde1 in gel cleavage assay [4]: not Nde1; Activity against FnCpf1 in gel cleavage assay (FnCpf1): active in Fncpf1
4 | CCc1cccc(-n2nnnc2N2CCN(C(=O)Nc3cccc(C)c3)CC2)c1 [Compound L378-0350] |  |  |  |  |  |  |  |  |  |  |  |  |  |  | Activity against Nde1 in gel cleavage assay [4]: not Nde1; Activity against FnCpf1 in gel cleavage assay (FnCpf1): active in Fncpf1
5 | O=C(CCSc1ccc(Cl)cc1)Nc1nc(-c2ccncc2)cs1 [Compound F2537-0908] |  |  |  |  |  |  |  |  |  |  |  |  |  |  | Activity in HiBiT knock-in assay (SpCas9 [1]): significantly lower inhibitory activity; Activity in eGFP-disruption assay (SpCas9 [2]): significantly lower inhibitory activity
6 | Cc1nc2ccccc2c(C)c1CC(=O)N1CCN(c2ccc(O)cc2)CC1 [Compound T5461482] | 36.6 | 24.48 | 66.84 | 3.50 | 67.11 | 3.50 | 66.842 | 0.24 | 6.37 | 67.113 | 0.31 | 3.23 | 0.09 | 0.10 | Average Normalized Z score (SpCas9 [3]; average of replicates): 0.10
7 | NC1=C(c2nc3ccccc3s2)C(=O)CN1N=Cc1ccc(-c2ccc(S(=O)(=O)Nc3ncccn3)cc2)o1 [Compound T5371551] | −12.66 | 22.88 | 64.28 | 2.50 | 76.75 | 2.50 | 64.278 | 0.17 | 11.57 | 76.754 | 0.56 | 9.04 | 0.61 | 0.58 | Average Normalized Z score (SpCas9 [3]; average of replicates): 0.60
8 | COc1ccc(Cc2nn3c(-c4cccnc4)nnc3s2)cc1OC [Compound D727-0069] | 8.56 | 24.03 |  |  |  | −2.26 |  |  | −1.55 |  |  |  |  |  | Normalized Z rep1 (SpCas9 [2]): −0.31; SpCas9 eGFP disruption Rep1 (SpCas9 [2]): 59.543; Normalized Z rep2 (SpCas9 [2]): −0.17; SpCas9 eGFP disruption Rep2 (SpCas9 [2]): 58.398
9 | CCc1cccc(-n2nnnc2N2CCN(C(=O)Nc3ccc(C)cc3C)CC2)c1 [Compound L378-0355] |  |  |  |  |  |  |  |  |  |  |  |  |  |  | Activity against Nde1 in gel cleavage assay [4]: not Nde1; Activity against FnCpf1 in gel cleavage assay (FnCpf1): active in Fncpf1
10 | O=C(CCS(=O)(=O)c1ccc(Cl)cc1)Nc1nc(-c2ccncc2)cs1 [Compound G786-1325] | 97.09 | 56.65 | 86.01 | 5.65 | 86.24 | 5.65 | 86.012 | 0.54 | 12.44 | 86.243 | 0.54 | 4.35 | 0.05 | 0.04 | Average Normalized Z score (SpCas9 [3]): 0.04
11 | O=C(CCS(=O)(=O)c1ccccc1)Nc1nc(-c2ccncc2)cs1 [Compound G786-1264] | 72.63 | 41.72 | 82.72 | 3.83 | 83.95 | 3.83 | 82.717 | 0.37 | 9.69 | 83.951 | 0.42 | 5.95 | 0.06 | 0.06 | Average Normalized Z score (SpCas9 [3]): 0.06
12 | c1ccc(-c2nnc3sc(-c4cc5ccccc5o4)nn23)nc1 [Compound D727-0535] | 18.11 | 18.61 |  |  |  | −0.99 |  |  | −2.07 |  |  |  |  |  | Normalized Z rep1 (SpCas9 [2]): −0.14; SpCas9 eGFP disruption Rep1 (SpCas9 [2]): 63.743; Normalized Z rep2 (SpCas9 [2]): −0.22; SpCas9 eGFP disruption Rep2 (SpCas9 [2]): 56.828
13 | O=C(CSc1nccn1-c1cccc(F)c1)N1CCN(c2ccc(O)cc2)CC1 [Compound T5535170] | 68.25 | 27.53 | 67.96 | 3.93 | 65.34 | 3.93 | 67.964 | 0.28 | 5.41 | 65.339 | 0.26 | 4.37 | 0.28 | 0.33 | Average Normalized Z score (SpCas9 [3]; average of replicates): 0.31
14 | O=C(CCSc1ccc(Cl)cc1)Nc1nc(-c2ccc(Br)cc2)cs1 [BRD0033] |  |  |  |  |  |  |  |  |  |  |  |  |  |  | Activity in HiBiT knock-in assay (SpCas9 [1]): inactive; Activity in eGFP-disruption assay (SpCas9 [2]): inactive
15 | O=C(CCS(=O)(=O)c1ccc(Cl)cc1)Nc1nc(-c2ccccn2)cs1 [Compound G786-1324] | 94.5 | 32.94 | 81.43 | 3.12 | 79.94 | 3.12 | 81.427 | 0.30 | 4.86 | 79.939 | 0.21 | 4.44 | 0.05 | 0.04 | Average Normalized Z score (SpCas9 [3]): 0.05
16 | Cc1ccccc1C(=O)Nc1nc2ccc(S(N)(=O)=O)cc2s1 [Compound G786-1547] | 4.3 | 42.41 | 82.8 | 3.88 | 84.09 | 3.88 | 82.802 | 0.37 | 9.85 | 84.086 | 0.43 | 3.81 | 0.04 | 0.04 | Average Normalized Z score (SpCas9 [3]): 0.04
